In ChEMBL document CHEMBL1201862, “PubChem BioAssay data set” (2004):
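Assay format: 96-well plates, 48-hour exposure. GI50: concentration for 50% inhibition of growth.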 Activity calls are given as the source filed them. Cut-off read from the data, not from the text of the source: active = GI50 up to about 1.1 µM and inactive = higher.

Columns and labels:
Assay in all cases: NCI anticancer screen, dose series, 48 h
M19-MEL = tested on: M19-MEL
HL-60 = tested on: HL-60
786-0 = tested on: 786-0
UACC-257 = tested on: UACC-257
XF498 = tested on: XF498
CCRF-CEM = tested on: CCRF-CEM
MDA-N = tested on: MDA-N
HOP-92 = tested on: HOP-92
MCF7 = tested on: MCF7
NCI/ADR-RES = tested on: NCI/ADR-RES
MDA-MB-435 = tested on: MDA-MB-435
SF-295 = tested on: SF-295
SNB-19 = tested on: SNB-19
T47D = tested on: T47D
BT-549 = tested on: BT-549
KM12 = tested on: KM12
OVCAR-4 = tested on: OVCAR-4
HOP-18 = tested on: HOP-18
SF-539 = tested on: SF-539
SK-MEL-2 = tested on: SK-MEL-2
DMS-273 = tested on: DMS-273
UO-31 = tested on: UO-31
MOLT-4 = tested on: MOLT-4
DU-145 = tested on: DU-145
U-251 = tested on: U-251
NCI-H23 = tested on: NCI-H23
SK-MEL-28 = tested on: SK-MEL-28
M14 = tested on: M14
ACHN = tested on: ACHN
RPMI-8226 = tested on: RPMI-8226
LXFL 529 = tested on: LXFL 529
HCT-116 = tested on: HCT-116
DLD-1 = tested on: DLD-1
K562 = tested on: K562
SK-MEL-5 = tested on: SK-MEL-5
SR = tested on: SR
A498 = tested on: A498
COLO 205 = tested on: COLO 205
LOX IMVI = tested on: LOX IMVI
PC-3 = tested on: PC-3
NCI-H226 = tested on: NCI-H226
SF-268 = tested on: SF-268
IGROV-1 = tested on: IGROV-1
NCI-H460 = tested on: NCI-H460
RXF 393 = tested on: RXF 393
HCC 2998 = tested on: HCC 2998
OVCAR-5 = tested on: OVCAR-5
CAKI-1 = tested on: CAKI-1
SNB-75 = tested on: SNB-75
Hs-578T = tested on: Hs-578T
OVCAR-3 = tested on: OVCAR-3
Malme-3M = tested on: Malme-3M
EKVX = tested on: EKVX
NCI-H522 = tested on: NCI-H522
HCT-15 = tested on: HCT-15
HT-29 = tested on: HT-29
SNB-78 = tested on: SNB-78
SN12C = tested on: SN12C
A549 = tested on: A549
UACC-62 = tested on: UACC-62
DMS-114 = tested on: DMS-114
SK-OV-3 = tested on: SK-OV-3
SW-620 = tested on: SW-620
HOP-62 = tested on: HOP-62
OVCAR-8 = tested on: OVCAR-8
TK-10 = tested on: TK-10
KM-20L2 = tested on: KM-20L2

## COC(=O)c1ccc(NCc2cc(O)ccc2O)cc1
M19-MEL
  GI50: 16.7 µM (inactive)
HL-60
  GI50: 1.69 µM (inactive)
786-0
  GI50: 9.4 µM (inactive)
UACC-257
  GI50: 14.4 µM (inactive)
XF498
  GI50: 2.96 µM (inactive)
CCRF-CEM
  GI50: 1.51 µM (inactive)
MDA-N
  GI50: 5.31 µM (inactive)
HOP-92
  GI50: 13.3 µM (inactive)
MCF7
  GI50: 6.21 µM (inactive)
NCI/ADR-RES
  GI50: 3.08 µM (inactive)
MDA-MB-435
  GI50: 4.63 µM (inactive)
SF-295
  GI50: 18.2 µM (inactive)
SNB-19
  GI50: 22.7 µM (inactive)
T47D
  GI50: 1.65 µM (inactive)
BT-549
  GI50: 1.04 µM (active)
KM12
  GI50: 12.4 µM (inactive)
OVCAR-4
  GI50: 11.5 µM (inactive)
HOP-18
  GI50: 14.2 µM (inactive)
SF-539
  GI50: 5.46 µM (inactive)
SK-MEL-2
  GI50: 16 µM (inactive)
DMS-273
  GI50: 24.7 µM (inactive)
UO-31
  GI50: 8 µM (inactive)
MOLT-4
  GI50: 3.19 µM (inactive)
DU-145
  GI50: 12.4 µM (inactive)
U-251
  GI50: 9.79 µM (inactive)
NCI-H23
  GI50: 15.4 µM (inactive)
SK-MEL-28
  GI50: 18.9 µM (inactive)
M14
  GI50: 18 µM (inactive)
ACHN
  GI50: 10.2 µM (inactive)
RPMI-8226
  GI50: 1.69 µM (inactive)
LXFL 529
  GI50: 5.06 µM (inactive)
HCT-116
  GI50: 17.4 µM (inactive)
DLD-1
  GI50: 18.1 µM (inactive)
K562
  GI50: 4 µM (inactive)
SK-MEL-5
  GI50: 9.71 µM (inactive)
SR
  GI50: 1.58 µM (inactive)
A498
  GI50: 16.8 µM (inactive)
COLO 205
  GI50: 12.6 µM (inactive)
LOX IMVI
  GI50: 10.2 µM (inactive)
PC-3
  GI50: 4.39 µM (inactive)
NCI-H226
  GI50: 8.38 µM (inactive)
SF-268
  GI50: 11.2 µM (inactive)
IGROV-1
  GI50: 9.89 µM (inactive)
NCI-H460
  GI50: 23.6 µM (inactive)
RXF 393
  GI50: 6.73 µM (inactive)
HCC 2998
  GI50: 14.4 µM (inactive)
OVCAR-5
  GI50: 15 µM (inactive)
CAKI-1
  GI50: 21.3 µM (inactive)
SNB-75
  GI50: 15.3 µM (inactive)
Hs-578T
  GI50: 3.93 µM (inactive)
OVCAR-3
  GI50: 10.9 µM (inactive)
Malme-3M
  GI50: 6.71 µM (inactive)
EKVX
  GI50: 15.6 µM (inactive)
NCI-H522
  GI50: 0.841 µM (active)
HCT-15
  GI50: 10.2 µM
HT-29
  GI50: 23.1 µM (inactive)
SNB-78
  GI50: 15.2 µM (inactive)
SN12C
  GI50: 16.5 µM (inactive)
A549
  GI50: 14.5 µM (inactive)
UACC-62
  GI50: 10.4 µM (inactive)
DMS-114
  GI50: 3.52 µM (inactive)
SK-OV-3
  GI50: 14 µM (inactive)
SW-620
  GI50: 9.18 µM (inactive)
HOP-62
  GI50: 15.9 µM (inactive)
OVCAR-8
  GI50: 11.6 µM (inactive)
TK-10
  GI50: 17.5 µM (inactive)
KM-20L2
  GI50: 28.4 µM (inactive)
